# In patent publication US9796697B2, “Tricyclic inhibitors of HIF-2-alpha and uses thereof” (Peloton Therapeutics, Inc., priority 2015, dated 2017):
# Tests used:
# [1] = molecular target: T1, HIF-2α HIS TAG-PASB Domain (Homo sapiens, UniProt Q99814); assay: HIF-2α Scintillation Proximity Assay (SPA); type: binding; details: displacement of tritiated probe N-(3-Chlorophenyl-4,6-t2)-4-nitrobenzo[c][1,2,5]oxadiazol-5-amine from HIF-2α PASB domain
# T1 construct: 100 nM HIF-2α HIS TAG-PASB Domain
# Procedure: Example 8: HIF-2α Scintillation Proximity Assay (SPA)
# The total assay volume was about 100 μL in the following configuration: 2 μL compound in 100% DMSO, 88 μL buffer with protein and probe and 10 μL of SPA beads. The compound was diluted in a master plate consisting of a 10-point dose response with a 3-fold compound dilution from 100 μM to 5 nM. Assays were run on a 96-well plate in which one column, designated as the high signal control, contained DMSO with no compound and another column, designated as the low signal control, contained no protein. Prior to plating out of compound, a buffer solution, consisting of 25 mM TRIS pH 7.5 (Sigma), 150 mM NaCl (Sigma), 15% Glycerol (Sigma), 0.15% BSA (Sigma), 0.001% Tween-20 (Sigma), 150 nM N-(3-Chlorophenyl-4,6-t2)-4-nitrobenzo[c][1,2,5]oxadiazol-5-amine and 100 nM HIF-2α HIS TAG-PASB Domain, was made and allowed to equilibrate for 30 minutes. Compounds that were to be tested were then plated in to a 96-well white clear bottom Isoplate-96 SPA plate (Perkin Elmer). To the compounds was added 88 μL of the buffer solution, then the plate covered with a plastic cover and aluminum foil, placed onto a shaker and equilibrated for 1 hour. After equilibration, 10 μL of a 2 mg/mL solution of YSi Cu His tagged SPA beads (Perkin Elmer) were then added to each well of the plate, covered and equilibrated for another 2 hours. The plates were then removed from the shaker, placed into a 1450 LSC and luminescence counter MicroBeta Trilux (Perkin Elmer) to measure the extent of probe displacement. The percent inhibition was determined and IC50 values were calculated using the Dotmatics system based on the following equation: % inhibition=[(high control−sample)/(high control−low control)]×100.
# [2] = test system: 786-O-Hif-Luc cells; assay: Luciferase Assay; type: cell-based; details: HIF responsive element luciferase reporter, about 24 hours
# Procedure: Example 10: Luciferase Assay
# 786-O-Hif-Luc single clone cells were obtained by infecting 786-0 cells (ATCC® CRL-1932™) with commercial lentivirus that delivers a luciferase gene driven by multiple HIF responsive elements (Cignal Lenti HIF Reporter (luc): CLS-007L, Qiagen) at Multiplicity of Infection (MOI) of 25 for 24 hours. The cells were replenished with fresh medium (Dulbecco's Modified Eagle's Medium (DMEM, D5796, Sigma) supplemented with 10% FBS (F6178, Sigma), 100 units penicillin and 100 μg streptomycin/mL (P4333, Sigma)) for another 24 hours. A pool of infected cells were then selected against 2 μg/mL of puromycin (P8833, Sigma) for 10 days followed by limited dilution to select single clones. […] For the luciferase assay, about 7500 786-O-Hif-Luc cells in 90 μL growth medium were seeded into each well of a 96-well white opaque plate (08-771-26, Fisher scientific) a day before treatment with the layout presented in FIG. 2.
# On treatment day, serial dilutions of 10× compound stocks were made in growth medium from 500×DMSO stocks, and 10 μL, of the 10× stocks were added to each well to make final concentrations as follows GAM): 20, 6.67, […], 0.74, 0.25, 0.08, 0.027, 0.009, 0.003, 0.001, and 0. Each concentration was tested in triplicate. After about 24 hours, luciferase activity was determined using ONE-Glo Luciferase Assay Reagent (E6110, Promega) following the manufacturer's recommended procedure. EC50 were calculated using Dotmatics software.
# [3] = test system: 786-O cells; assay: VEGF ELISA Assay; type: cell-based; details: Homo sapiens, 786-0; VEGF concentration in culture medium of 786-O cells
# Procedure: Example 9: VEGF ELISA Assay
# About 7500 786-O cells in 180 μL of growth medium were seeded into each well of a 96-well, white, clear bottom plate (07-200-566, Fisher Scientific) on day one in the layout presented in FIG. 1.
# Four hours later, serial dilutions of 10× compound stocks were made in growth medium from 500×DMSO stocks, and 20 μL of those 10× stocks were added to each well to make final concentrations as follows (μM): 20, 6.67, 2.22, 0.74, 0.25, 0.082, 0.027, 0.009, 0.003, 0.001, and 0. Each concentration was plated in duplicate. About 20 hours later, medium was removed by suction and each well was supplied with 180 μL of growth medium. About 20 μl freshly-made 10× compound stocks were added to each well. […] The EC50 was calculated by GraphPad Prism using the dose-response-inhibition (four parameter) equation. The cell-seeded plate was then subjected to CellTiter-Glo luminescence cell viability assay (Promega) by adding 50 μL of Celltiter Glo reagent into each well and shaking the plate for 8 minutes at 550 rpm (Thermomixer R, Eppendorf) then the luminescence signal immediately read in a plate reader (3 second delay, 0.5 second/well integration time, Synergy 2 multi Detection Microplate reader).
# T1 sequence (Q99814 239-348): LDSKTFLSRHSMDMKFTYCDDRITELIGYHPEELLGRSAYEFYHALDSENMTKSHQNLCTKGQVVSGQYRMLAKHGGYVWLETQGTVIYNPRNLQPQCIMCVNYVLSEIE
SMILES,EC50 [1] [µM],EC50 [2] [µM],EC50 [3] [µM]
C=C1CC2(O)CS(=O)(=O)c3ccc(Oc4cc(F)cc(C#N)c4)c1c32 (centres unmarked) [Compound 12],> 1,–,–
C=C1CC2(O)c3c(ccc(OCC(F)F)c31)S(=O)(=O)C2(F)F (centres unmarked) [Compound 17],> 1,–,–
N#Cc1cc(F)cc(Oc2ccc3c4c2C(F)C(F)C4(F)CS3(=O)=O)c1 (centres unmarked) [Compound 16],> 1,–,–
N#Cc1cc(F)cc(Oc2ccc3c4c2C(F)CC4(O)CS3(=O)=O)c1 (centres unmarked) [Compound 7],> 1,–,–
N#Cc1cc(F)cc(Oc2ccc3c4c2C(F)C[C@@]4(O)C(F)(F)S3(=O)=O)c1 (some centres unmarked) [Compound 20],> 1,–,–
N#Cc1cncc(Oc2ccc3c4c2C(F)CC4(F)C(F)(F)S3(=O)=O)c1 (centres unmarked) [Compound 2],> 1,–,–
"N#Cc1cc(F)cc(Oc2ccc3c4c2C(=O)CC4(O)C(F)(F)S3(=O)=O)c1 (centres unmarked) [Compound 11, 3-((2,2-difluoro-2a-hydroxy-1,1-dioxido-4-oxo-2,2a,3,4-tetrahydroindeno[7,1-bc]thiophen-5-yl)oxy)-5-fluorobenzonitrile]",0.25 to 1,0.25 to 1,–
N#Cc1cc(F)cc(Oc2ccc3c4c2C(F)CC4(F)CS3(=O)=O)c1 (centres unmarked) [Compound 1],> 1,–,–
N#Cc1cc(F)cc(Oc2ccc3c4c2C(F)C(F)C4(O)CS3(=O)=O)c1 (centres unmarked) [Compound 5],> 1,> 1,–

# Results, then the compound that gave them:
EC50 [1] [µM],EC50 [2] [µM],EC50 [3] [µM],SMILES
0.05 to 0.249,0.25 to 1,–,N#Cc1cncc(Oc2ccc3c4c2C(F)CC4(O)C(F)(F)S3(=O)=O)c1 (centres unmarked) [Compound 19]
< 0.05,0.25 to 1,–,C=C1CC2(O)c3c(ccc(Oc4cncc(C#N)c4)c31)S(=O)(=O)C2(F)F (centres unmarked) [Compound 14]
0.05 to 0.249,0.05 to 0.249,–,N#Cc1cc(F)cc(Oc2ccc3c4c2CCC4(O)C(F)(F)S3(=O)=O)c1 (centres unmarked) [Compound 4]
< 0.05,< 0.05,< 0.05,N#Cc1cc(F)cc(Oc2ccc3c4c2[C@@H](F)C[C@]4(O)C(F)(F)S3(=O)=O)c1 [Compound 15]
0.05 to 0.249,0.25 to 1,–,"C=C1CC2(N)c3c(ccc(Oc4cc(F)cc(C#N)c4)c31)S(=O)(=O)C2(F)F (centres unmarked) [Compound 3, 3-((2a-amino-2,2-difluoro-4-methylene-1,1-dioxido-2,2a,3,4-tetrahydroindeno[7,1-bc]thiophen-5-yl)oxy)-5-fluorobenzonitrile]"
0.25 to 1,0.25 to 1,–,C=C1CC2(O)c3c(ccc(Oc4cncc(F)c4)c31)S(=O)(=O)C2(F)F (centres unmarked) [Compound 9]
< 0.05,< 0.05,0.05 to 0.249,"N#Cc1cc(F)cc(Oc2ccc3c4c2C(F)CC4(O)C(F)(F)S3(=O)=O)c1 (centres unmarked) [Compound 6, 3-fluoro-5-((2,2,4-trifluoro-2a-hydroxy-1,1-dioxido-2,2a,3,4-tetrahydroindeno[7,1-bc]thiophen-5-yl)oxy)benzonitrile]"
< 0.05,< 0.05,< 0.05,"C=C1CC2(O)c3c(ccc(Oc4cc(F)cc(C#N)c4)c31)S(=O)(=O)C2(F)F (centres unmarked) [Compound 13, 3-((2,2-difluoro-2a-hydroxy-4-methylene-1,1-dioxido-2,2a,3,4-tetrahydroindeno[7,1-bc]thiophen-5-yl)oxy)-5-fluorobenzonitrile]"
0.25 to 1,–,–,"N#Cc1cc(F)cc(Oc2ccc3c4c2C(F)CC4(F)C(F)(F)S3(=O)=O)c1 (centres unmarked) [Compound 10, 3-fluoro-5-((2,2,2a,4-tetrafluoro-1,1-dioxido-2,2a,3,4-tetrahydroindeno[7,1-bc]thiophen-5-yl)oxy)benzonitrile]"
0.05 to 0.249,0.05 to 0.249,–,"CC1CC2(O)c3c(ccc(Oc4cc(F)cc(C#N)c4)c31)S(=O)(=O)C2(F)F (centres unmarked) [Compound 8, 3-((2,2-difluoro-2a-hydroxy-4-methyl-1,1-dioxido-2,2a,3,4-tetrahydroindeno[7,1-bc]thiophen-5-yl)oxy)-5-fluorobenzonitrile]"
0.05 to 0.249,0.25 to 1,–,N#Cc1cc(F)cc(Oc2ccc3c4c2CCC4C(F)(F)S3(=O)=O)c1 (centres unmarked) [Compound 18]
